Measurements reported in patent US10562912B2 (C&C Research Laboratories, priority 2013, dated 2020).

Columns and labels:
Assay type in all cases: cell-based
MDA-MB-231 = experiment: Cell growth inhibition assay, breast cancer cell line MDA-MB-231; conditions: Homo sapiens; MDA-MB-231 breast cancer cell line, 5,000 cells/well
Description: The inhibitory effects of the compounds of the present invention against the growth of cancer cells were evaluated as shown below. The cancer cell lines including stomach cancer cell line (AGS), breast cancer cell lines (MDA-MB-231, MDA-MB-468, and BT-549), prostate cancer cell lines (LNCaP and DU-145), colon cancer cell line (HCT116), ovarian cancer cell line (SW626), liver cancer cell line (Hep3B), kidney cancer cell line (ACHN), lung cancer cell line (NCI-H23) and blood cancer cell lines (HEL92.1.7 and U266) were cultured under the protocol provided by each supplier. A medium supplemented with 10 ng/mL of IL-6 was used for LNCaP, a prostate cancer cell line, when treated with a drug. Each type of cells to be used in experiments were sub-cultured in a 96-well plate by counting the exact number of cells using Tali™ Image-based Cytometer (Life Technologies). In a 96-well plate, AGS, HCT116, and DU-145 were employed with 3,000 cells/well; NCI-H23, SW626, Hep3B, ACHN, BT-549, MDA-MB-231, HEL92.1.7, and U266 were employed with 5,000 cells/well; and LNCaP and MDA-MB-468 were employed with 10,000 cells/well. The cells were treated with the compounds listed in Examples which were diluted in various concentrations. Upon completion of the compounds treatment, AGS, HCT116, SW626, DU145, NCI-H23, Hep3B, ACHN, BT-549, LNCaP, HEL92.1.7, and U266 cells were cultured at 37° C. under 5% CO2 for from 72 to 96 hours, and MDA-MB-231 and MDA-MB-468 cells were cultured at 37° C. in air for from 72 to 96 hours. Subsequently, the cells were observed under microscope and drug precipitation and particular findings were investigated and recorded. And then, the 96-well plate was placed at room temperature for 30 minutes, added with 20 μL/well of CellTiter-Glo solution (Cat No. G7573, Promega) and shaken for 10 minutes, followed by being subjected to the measurement using PHERAstar™ microplate reader (BMG LABTECH) according to the supplier's general luminometer protocol. Wells where only culture liquid added without cell plating were used as a negative control, whereas wells where culture liquid containing 0.1% DMSO instead of the compounds listed in Examples were used as a positive control.

LNCaP = experiment: Cell growth inhibition assay, prostate cancer cell line LNCaP (medium with 10 ng/mL IL-6); conditions: Homo sapiens, medium supplemented with 10 ng/mL of IL-6, 10,000 cells/well
STAT3 = molecular target: T1, STAT3 (Homo sapiens, UniProt P40763); experiment: STAT3 reporter gene assay (luciferase), LNCaP stable cell line (pSTAT3-TA-luc), IL-6 stimulation
T1 construct: plasmid pSTAT3-TA-luc), which contains a stably operating STAT3 promoter; endogenous in cells
In short: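 LNCaP cells stably carrying pSTAT3-TA-luc, in RPMI1640 with 3% DCC-FBS, were treated with compound and then stimulated with 10 ng/mL IL-6 for 24–48 h at 37 °C. Luciferase activity was measured in lysates. A parallel plate measured viability by CellTiter-Glo, with stimulated 0.1% DMSO wells as the positive control.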

DU-145 = experiment: Cell growth inhibition assay, prostate cancer cell line DU-145; conditions: Homo sapiens, DU-145 prostate cancer cell line
In short: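 DU-145 and HCT116 cells were plated at 3,000 cells/well and SW626 at 5,000 cells/well, then treated with serially diluted compounds. After 72 to 96 hours at 37° C. under 5% CO2, viability was read by CellTiter-Glo luminescence against cell-free medium wells and 0.1% DMSO wells.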

T1 sequence (P40763 whole entry): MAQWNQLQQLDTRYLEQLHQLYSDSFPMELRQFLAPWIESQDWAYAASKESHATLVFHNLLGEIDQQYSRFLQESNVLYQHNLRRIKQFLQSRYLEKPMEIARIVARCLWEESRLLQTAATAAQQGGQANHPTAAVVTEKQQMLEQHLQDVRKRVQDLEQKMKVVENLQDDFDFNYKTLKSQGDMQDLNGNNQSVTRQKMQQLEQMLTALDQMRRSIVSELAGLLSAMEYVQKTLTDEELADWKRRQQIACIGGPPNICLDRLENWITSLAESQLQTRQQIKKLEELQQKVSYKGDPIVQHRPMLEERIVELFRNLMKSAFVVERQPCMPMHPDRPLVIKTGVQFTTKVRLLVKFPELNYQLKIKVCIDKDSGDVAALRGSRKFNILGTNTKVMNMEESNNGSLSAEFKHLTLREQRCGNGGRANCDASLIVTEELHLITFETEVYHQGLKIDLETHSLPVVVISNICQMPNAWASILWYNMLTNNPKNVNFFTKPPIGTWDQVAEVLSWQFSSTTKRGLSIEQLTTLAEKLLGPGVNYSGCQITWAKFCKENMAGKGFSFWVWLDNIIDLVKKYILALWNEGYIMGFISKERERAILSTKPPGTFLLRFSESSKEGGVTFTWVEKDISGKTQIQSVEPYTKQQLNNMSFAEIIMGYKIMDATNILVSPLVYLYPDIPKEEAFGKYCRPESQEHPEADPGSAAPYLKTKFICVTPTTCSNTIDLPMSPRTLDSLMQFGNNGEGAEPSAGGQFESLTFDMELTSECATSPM

Compound	IC50 (MDA-MB-231) [µM]	IC50 (LNCaP) [µM]	IC50 (STAT3) [µM]	IC50 (DU-145) [µM]
CS(=O)(=O)Nc1ccc2cc(C(=O)Nc3cc(F)cc(-c4ccc(F)cc4F)c3)[nH]c2c1 [Example 312, 6-(methylsulfonamido)-N-(2′,4′,5-trifluoro-[1,1′-biphenyl]-3-yl)-1H-indole-2-carboxamide]	0.22	1.3	0.24	–
CS(=O)(=O)Nc1ccc2cc(C(=O)Nc3cc(OC(F)F)cc(C4(c5ccc(F)cc5)CC4)c3)[nH]c2c1 [Example 428, N-(3-(difluoromethoxy)-5-(1-(4-fluorophenyl)cyclopropyl)phenyl)-6-(methylsulfonamido)-1H-indole-2-carboxamide]	0.39	1.4	1	–
CS(=O)(=O)Nc1ccc2cc(C(=O)Nc3cc(-c4ccc(O)nc4)cc(-c4ccc(F)cc4F)c3)[nH]c2c1 [Example 364, N-(2′,4′-difluoro-5-(6-hydroxypyridin-3-yl)-[1,1′-biphenyl]-3-yl)-6-(methylsulfonamido)-1H-indole-2-carboxamide]	> 10	> 10	> 10	–
CC(C)Oc1cc(OC(F)(F)F)cc(C(C)(C)c2cc(Cl)cc(NC(=O)c3cn4cc(NS(C)(=O)=O)ccc4n3)c2)c1 [Example 74, N-(3-chloro-5-(2-(3-isopropoxy-5-(trifluoromethoxy)phenyl)propan-2-yl)phenyl)-6-(methylsulfonamido)imidazo[1,2-a]pyridine-2-carboxamide]	–	6.6	2.7	2.6
CS(=O)(=O)Nc1ccc2sc(C(=O)Nc3cc(Cl)cc(Oc4cccc(C(F)(F)F)c4)c3)cc2c1 [Example 455, N-(3-chloro-5-(3-(trifluoromethyl)phenoxy)phenyl)-5-(methylsulfonamido)benzo[b]thiophene-2-carboxamide]	–	0.22	0.19	0.19

Now from value to compound:

IC50 (MDA-MB-231) [µM]	IC50 (LNCaP) [µM]	IC50 (STAT3) [µM]	IC50 (DU-145) [µM]	Compound
0.37	2.9	0.43	–	CC(C)(c1ccc(F)cc1)c1cccc(NC(=O)c2cc3ccc(NS(C)(=O)=O)cc3s2)c1 [Example 30, N-(3-(2-(4-fluorophenyl)propan-2-yl)phenyl)-6-(methylsulfonamido)benzo[b]thiophene-2-carboxamide]
> 10	> 10	> 10	–	CS(=O)(=O)Nc1ccc2cc(C(=O)Nc3cccc(S(=O)(=O)c4cc(O)cc(C#N)c4)c3)[nH]c2c1 [Example 417, N-(3-((3-cyano-5-hydroxyphenyl)sulfonyl)phenyl)-6-(methylsulfonamido)-1H-indole-2-carboxamide]
> 10	> 10	6.3	–	CC(C)(c1cccc(NC(=O)c2cc3ccc(N(CC(N)=O)S(C)(=O)=O)cc3[nH]2)c1)c1cc(OCC(N)=O)cc(OC(F)(F)F)c1 [Example 437, N-(3-(2-(3-(2-amino-2-oxoethoxy)-5-(trifluoromethoxy)phenyl)propan-2-yl)phenyl)-6-(N-(2-amino-2-oxoethyl)methylsulfonamido)-1H-indole-2-carboxamide]
–	1.5	0.22	0.8	COc1cc(OC(F)(F)F)cc(C(C)(C)c2cc(Br)cc(NC(=O)c3cc4cc(NS(C)(=O)=O)ncc4[nH]3)c2)c1 [Example 99, N-(3-bromo-5-(2-(3-methoxy-5-(trifluoromethoxy)phenyl)propan-2-yl)phenyl)-5-(methylsulfonamido)-1H-pyrrolo[2,3-c]pyridine-2-carboxamide 2,2,2-trifluoroacetate]
–	0.025	0.018	0.011	CC(C)Oc1cc(OC(F)(F)F)cc(C(C)(C)c2cc(I)cc(NC(=O)c3cc4cc(NS(C)(=O)=O)ccc4s3)c2)c1 [Example 213, N-(3-iodo-5-(2-(3-isopropoxy-5-(trifluoromethoxy)phenyl)propan-2-yl)phenyl)-5-(methylsulfonamido)benzo[b]thiophene-2-carboxamide]
